Experimental data reported in the supplement of paper PMC11061612.

How the values were obtained:
[1] = compound: COc1cccc2c1C(=O)c1c(O)c3c(c(O)c1C2=O)C[C@@](O)(C(=O)CO)C[C@@H]3O[C@H]1C[C@H](N)[C@H](O)[C@H](C)O1 [Doxorubicin]; conditions: max 1 µM
Summary of the method: (§1)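 After 24 hours at 37°C and 5% CO2 in 1536-well plates holding 7.5 μl of DMEM/F12 or RPMI with 10% FBS, cancer cell lines were dosed for 72 hours, with final DMSO typically 0.2%. Viability came from CellTiter-Glo 2.0 luminescence, scaled between the means of blank wells and DMSO wells. A non-linear mixed effects model fitted a two-parameter logistic curve to each dose response to give the single-agent IC50.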

[2] = compound: CC(=O)O[C@H]1C(=O)[C@@]2(C)[C@H]([C@H](OC(=O)c3ccccc3)[C@]3(O)C[C@H](OC(=O)[C@H](O)[C@@H](NC(=O)c4ccccc4)c4ccccc4)C(C)=C1C3(C)C)[C@]1(OC(C)=O)CO[C@@H]1C[C@@H]2O [Paclitaxel]; conditions: max 3 µM
Summary of the method: as §1

[3] = compound: C[C@@H](c1ccc2nccn2c1)n1nnc2ncc(-c3cnn(C)c3)nc21 [Savolitinib]; conditions: max 1 µM
Summary of the method: as §1

[4] = compound: CN(C)CCCOc1ccc(-c2ccc3ncc4c(c3c2)n(C2CCOCC2)c(=O)n4C)cn1 [AZD0156]; conditions: max 3 µM
Summary of the method: as §1

[5] = compound: COc1cc(Nc2ncc3c(n2)-c2ccc(Cl)cc2C(c2c(F)cccc2OC)=NC3)ccc1C(=O)O [Alisertib]; conditions: max 10 µM
Summary of the method: as §1

[6] = compound: CCN(CCO)CCCOc1ccc2c(Nc3cc(CC(=O)Nc4cccc(F)c4)[nH]n3)ncnc2c1 [AZD2811]; conditions: max 1 µM
Summary of the method: as §1

[7] = compound: Cc1nc(-c2cn3c(n2)-c2ccc(-c4cnn(C(C)(C)C(N)=O)c4)cc2OCC3)n(C(C)C)n1 [Taselisib]; conditions: max 10 µM
Summary of the method: as §1

[8] = compound: CCc1c2c(nc3ccc(O)cc13)-c1cc3c(c(=O)n1C2)COC(=O)[C@]3(O)CC [SN-38]; conditions: max 0.3 µM
Summary of the method: as §1

[9] = compound: C1CC(C1)(C(=O)[O-])C(=O)[O-].N.N.[Pt+2] [Carboplatin]; conditions: max 10 µM
Summary of the method: as §1

[10] = compound: COc1cc([C@@H]2c3cc4c(cc3[C@@H](O[C@@H]3O[C@@H]5CO[C@@H](C)O[C@H]5[C@H](O)[C@H]3O)[C@H]3COC(=O)[C@H]23)OCO4)cc(OC)c1O [Etoposide]; conditions: max 10 µM
Summary of the method: as §1

[11] = compound: C[C@@H]1COCCN1C2=NC(=NC(=C2)C3(CC3)[S@](=N)(=O)C)C4=C5C=CNC5=NC=C4 [AZD6738]; conditions: max 10 µM
Summary of the method: as §1

[12] = compound: O=c1[nH]cc(F)c(=O)[nH]1 [5-Fluorouracil]; conditions: max 20 µM
Summary of the method: as §1

[13] = compound: CC1(C)CCC(CN2CCN(c3ccc(C(=O)NS(=O)(=O)c4ccc(NCC5CCOCC5)c([N+](=O)[O-])c4)c(Oc4cnc5[nH]ccc5c4)c3)CC2)=C(c2ccc(Cl)cc2)C1 [Venetoclax]; conditions: max 1 µM
Summary of the method: as §1

[14] = compound: COc1cc2ncnc(Nc3ccc(F)c(Cl)c3)c2cc1OCCCN1CCOCC1 [Gefitinib]; conditions: max 10 µM
Summary of the method: as §1

[15] = compound: C1CN(CCC1(C(=O)N[C@@H](CCO)C2=CC=C(C=C2)Cl)N)C3=NC=NC4=C3C=CN4 [AZD5363]; conditions: max 10 µM
Summary of the method: as §1

[16] = compound: CC(C)n1c(=O)n(C)c2cnc3cc(F)c(-c4ccc(OCCCN5CCCCC5)nc4)cc3c21 [AZD1390]; conditions: max 0.3 µM
Summary of the method: as §1

[17] = compound: COc1cccc(OCCCN)c1-c1cc(Nc2cnc(C#N)cn2)n[nH]1 [Prexasertib]; conditions: max 1 µM
Summary of the method: as §1

[18] = compound: CN(CC[C@H](CSC1=CC=CC=C1)NC2=C(C=C(C=C2)S(=O)(=O)NC(=O)C3=CC=C(C=C3)N4CCC(CC4)[C@H](C5=CC=CC=C5C6=CC=C(C=C6)Cl)O)S(=O)(=O)C(F)(F)F)CCO [AZD4320]; conditions: max 1 µM
Summary of the method: as §1

[19] = compound: C=CCn1c(=O)c2cnc(Nc3ccc(N4CCN(C)CC4)cc3)nc2n1-c1cccc(C(C)(C)O)n1 [AZD1775]; conditions: max 3 µM
Summary of the method: as §1

[20] = compound: N#Cc1cnc(Nc2cc(NC[C@H]3CNCCO3)c(C(F)(F)F)cn2)cn1 [SRA737]; conditions: max 10 µM
Summary of the method: as §1

[21] = compound: NC1(c2ccc(-c3nc4ccn5c(=O)[nH]nc5c4cc3-c3ccccc3)cc2)CCC1 [MK-2206]; conditions: max 10 µM
Summary of the method: as §1

[22] = compound: CS(=O)(=O)CCNCc1ccc(-c2ccc3ncnc(Nc4ccc(OCc5cccc(F)c5)c(Cl)c4)c3c2)o1 [Lapatinib]; conditions: max 10 µM
Summary of the method: as §1

[23] = compound: COc1nnc2ccc(N3CCC(c4ccc(OCCN5CCN(C)C(=O)[C@H]5C)cc4)CC3)nn12 [AZD5153]; conditions: max 1 µM
Summary of the method: as §1

[24] = compound: Cc1cc2ncnn2cc1Nc1ncc2c(n1)n(C1CCOCC1)c(=O)n2C [AZD7648]; conditions: max 10 µM
Summary of the method: as §1

[25] = compound: Cc1c2c(nn1C)CSCc1cc(n(C)n1)CSc1cc(c3ccccc3c1)OCCCc1c(C(=O)O)n(C)c3c-2c(Cl)ccc13 [AZD5991]; conditions: max 1 µM
Summary of the method: as §1

[26] = compound: CC(=O)Nc1cccc(-n2c(=O)n(C3CC3)c(=O)c3c(Nc4ccc(I)cc4F)n(C)c(=O)c(C)c32)c1 [Trametinib]; conditions: max 1 µM
Summary of the method: as §1

[27] = compound: CC1=C(C(=CC=C1)Cl)NC(=O)C2=CN=C(S2)NC3=CC(=NC(=N3)C)N4CCN(CC4)CCO [Dasatinib]; conditions: max 2 µM
Summary of the method: as §1

[28] = compound: O=C(Nc1ccc2[nH]nc(-c3ccncc3)c2c1)[C@@H]1CCN(CC(=O)N2CCN(c3ccc(-c4ncccn4)cc3)CC2)C1; conditions: max 5 µM
Summary of the method: as §1

[29] = compound: Cn1cnc2c(F)c(Nc3ccc(Br)cc3Cl)c(C(=O)NOCCO)cc21 [Selumetinib]; conditions: max 10 µM
Summary of the method: as §1

[30] = compound: C[C@@H](Nc1cc(F)cc(F)c1)c1cc(C(=O)N(C)C)cc2c(=O)cc(N3CCOCC3)oc12 [AZD8186]; conditions: max 10 µM
Summary of the method: as §1

[31] = compound: C[C@@H](Oc1cc(-c2cnn(C3CCNCC3)c2)cnc1N)c1c(Cl)ccc(F)c1Cl [Crizotinib]; conditions: max 10 µM
Summary of the method: as §1

[32] = compound: CC(=O)c1c(C)c2cnc(Nc3ccc(N4CCNCC4)cn3)nc2n(C2CCCC2)c1=O [Palbociclib]; conditions: max 10 µM
Summary of the method: as §1

[33] = compound: Nc1ccn([C@@H]2O[C@H](CO)[C@@H](O)C2(F)F)c(=O)n1 [Gemcitabine]; conditions: max 0.3 µM
Summary of the method: as §1

[34] = compound: CC1=CN2[C@@H](C1)C=NC3=CC(=C(C=C3C2=O)OC)OCCCCCOC4=C(C=C5C(=C4)N=C[C@@H]6CC(=CN6C5=O)C)OC [SG3199]; conditions: max 0.001 µM
Summary of the method: as §1

[35] = compound: O=C(c1cc(Cc2n[nH]c(=O)c3ccccc23)ccc1F)N1CCN(C(=O)C2CC2)CC1 [Olaparib]; conditions: max 10 µM
Summary of the method: as §1

Row | Cell Line | IC50, cell viability 72 h [1] [µM] | IC50, cell viability 72 h [2] [µM] | IC50, cell viability 72 h [3] [µM] | IC50, cell viability 72 h [4] [µM] | IC50, cell viability 72 h [5] [µM] | IC50, cell viability 72 h [6] [µM] | IC50, cell viability 72 h [7] [µM] | IC50, cell viability 72 h [8] [µM] | IC50, cell viability 72 h [9] [µM] | IC50, cell viability 72 h [10] [µM] | IC50, cell viability 72 h [11] [µM] | IC50, cell viability 72 h [12] [µM] | IC50, cell viability 72 h [13] [µM] | IC50, cell viability 72 h [14] [µM] | IC50, cell viability 72 h [15] [µM] | IC50, cell viability 72 h [16] [µM] | IC50, cell viability 72 h [17] [µM] | IC50, cell viability 72 h [18] [µM] | IC50, cell viability 72 h [19] [µM] | IC50, cell viability 72 h [20] [µM] | IC50, cell viability 72 h [21] [µM] | IC50, cell viability 72 h [22] [µM] | IC50, cell viability 72 h [23] [µM] | IC50, cell viability 72 h [24] [µM] | IC50, cell viability 72 h [25] [µM] | IC50, cell viability 72 h [26] [µM] | IC50, cell viability 72 h [27] [µM] | IC50, cell viability 72 h [28] [µM] | IC50, cell viability 72 h [29] [µM] | IC50, cell viability 72 h [30] [µM] | IC50, cell viability 72 h [31] [µM] | IC50, cell viability 72 h [32] [µM] | IC50, cell viability 72 h [33] [µM] | IC50, cell viability 72 h [34] [µM] | IC50, cell viability 72 h [35] [µM]
1 | SK-HEP-1 (Hepatocellular Carcinoma) | 0.698 | 0.0454 | > 1 | > 3 | > 10 | > 1 | > 10 | 0.0835 | > 10 | 7.4 | > 10 | > 20 | > 1 | > 10 | > 10 | > 0.3 | > 1 | > 1 | > 3 | > 10 | 6.2 | > 10 | > 1 | > 10 | > 1 | > 1 | > 2 | > 5 | > 10 | > 10 | > 10 | 9.05 | > 0.3 | > 0.001 | > 10
2 | SW620 (Colorectal Carcinoma) | 0.64 | 0.116 | > 1 | > 3 | > 10 | > 1 | > 10 | 0.0322 | > 10 | 3.42 | > 10 | > 20 | > 1 | > 10 | > 10 | > 0.3 | 0.306 | > 1 | 1.14 | > 10 | > 10 | > 10 | > 1 | > 10 | > 1 | 0.0396 | > 2 | 0.928 | 0.911 | > 10 | > 10 | > 10 | 0.0976 | > 0.001 | > 10
3 | WM1552C (Melanoma) | > 1 | 0.0515 | > 1 | > 3 | 7.48 | > 1 | 8.74 | 0.152 | > 10 | > 10 | > 10 | > 20 | > 1 | > 10 | > 10 | > 0.3 | 0.0344 | > 1 | 1.76 | 6.18 | > 10 | > 10 | > 1 | > 10 | 0.759 | 0.158 | 1.81 | > 5 | 7.99 | > 10 | 6.26 | > 10 | 0.0522 | > 0.001 | > 10
